From ChEMBL document CHEMBL4376829, “Discovery and biological evaluation of vinylsulfonamide derivatives as highly potent, covalent TEAD autopalmitoylation inhibitors” (Eur J Med Chem, 2019)
Activity calls are given as the source filed them. The calls are words filed in the database; no cut-off is given here.

Assays:
[1] = organism: Homo sapiens; assay: Inhibition of recombinant human Mer H628Q/R794A mutant (557 to 882 residues) at 10 uM using GGMEDIYFEFMGGKKK as substrate measured after 40 mins in presence of [gamma33P]ATP by scintillation counting method relative to control
[2] = biological target: Focal adhesion kinase 1 (Homo sapiens) (UniProt Q05397); assay: Inhibition of recombinant human FAK (411 to 686 residues) at 10 uM using EEEEYEEEEEEYYIIEEEEEEYEEEEEEYYEEEEEEKKKK as substrate measured after 40 mins in presence of [gamma33P]ATP by scintillation counting method relative to control
[3] = organism: Homo sapiens; assay: Inhibition of TEAD transcriptional activity in human HCT116 cells assessed as reduction in CYR61 expression by qRT-PCR analysis; format: cell-based
[4] = biological target: Inhibitor of nuclear factor kappa-B kinase subunit alpha (Homo sapiens) (UniProt O15111); assay: Inhibition of full length recombinant human IKKalpha at 10 uM after 40 mins in presence of [gamma33P]ATP by scintillation counting method relative to control
Inhibitor of nuclear factor kappa-B kinase subunit alpha (Homo sapiens), sequence (O15111 whole entry, the tested form may be a part): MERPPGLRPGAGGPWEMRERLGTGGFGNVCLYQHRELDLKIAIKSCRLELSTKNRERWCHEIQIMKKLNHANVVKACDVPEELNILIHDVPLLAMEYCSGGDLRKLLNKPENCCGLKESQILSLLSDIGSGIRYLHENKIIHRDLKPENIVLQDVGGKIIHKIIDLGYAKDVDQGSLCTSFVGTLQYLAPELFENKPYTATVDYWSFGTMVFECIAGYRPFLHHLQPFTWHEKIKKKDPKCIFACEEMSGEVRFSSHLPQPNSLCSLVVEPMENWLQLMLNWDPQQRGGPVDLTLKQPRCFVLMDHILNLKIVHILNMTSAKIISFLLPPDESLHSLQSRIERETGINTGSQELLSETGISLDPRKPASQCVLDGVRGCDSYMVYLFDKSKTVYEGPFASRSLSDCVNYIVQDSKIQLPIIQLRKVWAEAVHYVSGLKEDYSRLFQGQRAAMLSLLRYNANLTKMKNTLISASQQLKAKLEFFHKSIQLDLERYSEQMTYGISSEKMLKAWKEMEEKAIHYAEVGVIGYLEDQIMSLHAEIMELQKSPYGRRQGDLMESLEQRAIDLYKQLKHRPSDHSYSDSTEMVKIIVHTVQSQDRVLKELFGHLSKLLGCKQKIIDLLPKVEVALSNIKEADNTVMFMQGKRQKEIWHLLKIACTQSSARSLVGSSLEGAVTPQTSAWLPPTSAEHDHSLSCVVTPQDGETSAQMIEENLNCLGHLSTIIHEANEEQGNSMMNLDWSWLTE

[5] = biological target: Transcriptional enhancer factor TEF-3 (Homo sapiens, UniProt Q15561); assay: Inhibition of FITC-labeled YAP peptide (61 to 100 residues) binding to TEAD4 (unknown origin) preincubated for 1 hr followed by FITC-labeled YAP peptide addition and measured after 30 mins by fluorescence polarization assay
Transcriptional enhancer factor TEF-3, sequence (Q15561 whole entry, the tested form may be a part): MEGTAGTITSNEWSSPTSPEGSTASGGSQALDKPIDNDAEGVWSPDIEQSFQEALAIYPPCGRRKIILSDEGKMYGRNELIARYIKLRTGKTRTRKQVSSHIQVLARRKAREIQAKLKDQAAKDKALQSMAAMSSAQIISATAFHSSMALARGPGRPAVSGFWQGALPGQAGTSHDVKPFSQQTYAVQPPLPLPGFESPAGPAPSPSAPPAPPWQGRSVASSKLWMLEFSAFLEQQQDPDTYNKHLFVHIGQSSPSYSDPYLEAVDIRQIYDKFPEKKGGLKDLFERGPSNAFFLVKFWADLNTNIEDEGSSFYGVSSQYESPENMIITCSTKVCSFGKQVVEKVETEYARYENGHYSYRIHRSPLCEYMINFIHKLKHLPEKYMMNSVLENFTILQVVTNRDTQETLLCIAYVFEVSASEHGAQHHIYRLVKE

[6] = organism: Homo sapiens; assay: Inhibition of recombinant full-length human PI3K p120gamma R459Q mutant at 10 uM using phosphatidylinositol-4, 5-bisphosphate as substrate measured after 40 mins by fluorescence assay relative to control
[7] = biological target: cGMP-dependent protein kinase 1 (Homo sapiens) (UniProt Q13976); assay: Inhibition of full-length recombinant human PKG1alpha at 10 uM using RRRLSFAEPG as substrate after 40 mins by in presence of [gamma33P]ATP by scintillation counting method relative to control
[8] = biological target: NUAK family SNF1-like kinase 1 (Homo sapiens) (UniProt O60285); assay: Inhibition of recombinant human ARK5 (2 to end residues) at 10 uM using KKKVSRSGLYRSPSMPENLNRPR as substrate measured after 40 mins in presence of [gamma33P]ATP by scintillation counting method relative to control
NUAK family SNF1-like kinase 1 (Homo sapiens), sequence (O60285 whole entry): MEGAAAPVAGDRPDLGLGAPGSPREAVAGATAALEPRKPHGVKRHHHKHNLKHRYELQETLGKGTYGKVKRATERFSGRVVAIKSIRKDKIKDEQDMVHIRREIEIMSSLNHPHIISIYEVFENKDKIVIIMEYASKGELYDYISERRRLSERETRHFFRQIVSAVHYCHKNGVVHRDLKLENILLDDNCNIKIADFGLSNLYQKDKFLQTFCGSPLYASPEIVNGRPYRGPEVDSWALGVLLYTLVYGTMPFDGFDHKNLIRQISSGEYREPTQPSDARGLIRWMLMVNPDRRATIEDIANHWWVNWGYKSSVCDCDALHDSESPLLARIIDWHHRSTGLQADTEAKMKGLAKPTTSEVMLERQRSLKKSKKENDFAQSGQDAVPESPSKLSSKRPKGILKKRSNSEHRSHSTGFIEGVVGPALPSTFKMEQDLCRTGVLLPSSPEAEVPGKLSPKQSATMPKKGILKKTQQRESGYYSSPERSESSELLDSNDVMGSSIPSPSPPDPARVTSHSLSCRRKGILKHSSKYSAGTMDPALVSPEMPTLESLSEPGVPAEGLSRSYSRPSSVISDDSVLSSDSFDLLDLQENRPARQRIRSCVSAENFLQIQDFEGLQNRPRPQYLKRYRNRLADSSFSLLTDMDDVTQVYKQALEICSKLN

[9] = system: Transcriptional enhancer factor TEF-3 (Homo sapiens), Q15561 [C367A]; assay: Binding affinity to TEAD4-YBD C367A mutant (unknown origin) assessed as change in melting temperature by SYPRO-dye based thermal shift assay
Transcriptional enhancer factor TEF-3 (Homo sapiens), Q15561 [C367A], sequence (Q15561 whole entry C367A): as the sequence (Q15561 whole entry, the tested form may be a part) above, with C367A counted along it

[10] = biological target: Tyrosine-protein kinase Yes (Homo sapiens) (UniProt P07947); assay: Inhibition of recombinant full-length human Yes at 10 uM using poly(Glu, Tyr) 4:1 as substrate measured after 40 mins in presence of [gamma33P]ATP by scintillation counting method relative to control
[11] = biological target: Death-associated protein kinase 1 (Homo sapiens) (UniProt P53355); assay: Inhibition of recombinant human DAPK1 (1 to 296 residues) at 10 uM using KKLNRTLSFAEPG as substrate after 40 mins by in presence of [gamma33P]ATP by scintillation counting method relative to control
Death-associated protein kinase 1 (Homo sapiens), sequence (P53355 whole entry, looked up, the tested form may be a part): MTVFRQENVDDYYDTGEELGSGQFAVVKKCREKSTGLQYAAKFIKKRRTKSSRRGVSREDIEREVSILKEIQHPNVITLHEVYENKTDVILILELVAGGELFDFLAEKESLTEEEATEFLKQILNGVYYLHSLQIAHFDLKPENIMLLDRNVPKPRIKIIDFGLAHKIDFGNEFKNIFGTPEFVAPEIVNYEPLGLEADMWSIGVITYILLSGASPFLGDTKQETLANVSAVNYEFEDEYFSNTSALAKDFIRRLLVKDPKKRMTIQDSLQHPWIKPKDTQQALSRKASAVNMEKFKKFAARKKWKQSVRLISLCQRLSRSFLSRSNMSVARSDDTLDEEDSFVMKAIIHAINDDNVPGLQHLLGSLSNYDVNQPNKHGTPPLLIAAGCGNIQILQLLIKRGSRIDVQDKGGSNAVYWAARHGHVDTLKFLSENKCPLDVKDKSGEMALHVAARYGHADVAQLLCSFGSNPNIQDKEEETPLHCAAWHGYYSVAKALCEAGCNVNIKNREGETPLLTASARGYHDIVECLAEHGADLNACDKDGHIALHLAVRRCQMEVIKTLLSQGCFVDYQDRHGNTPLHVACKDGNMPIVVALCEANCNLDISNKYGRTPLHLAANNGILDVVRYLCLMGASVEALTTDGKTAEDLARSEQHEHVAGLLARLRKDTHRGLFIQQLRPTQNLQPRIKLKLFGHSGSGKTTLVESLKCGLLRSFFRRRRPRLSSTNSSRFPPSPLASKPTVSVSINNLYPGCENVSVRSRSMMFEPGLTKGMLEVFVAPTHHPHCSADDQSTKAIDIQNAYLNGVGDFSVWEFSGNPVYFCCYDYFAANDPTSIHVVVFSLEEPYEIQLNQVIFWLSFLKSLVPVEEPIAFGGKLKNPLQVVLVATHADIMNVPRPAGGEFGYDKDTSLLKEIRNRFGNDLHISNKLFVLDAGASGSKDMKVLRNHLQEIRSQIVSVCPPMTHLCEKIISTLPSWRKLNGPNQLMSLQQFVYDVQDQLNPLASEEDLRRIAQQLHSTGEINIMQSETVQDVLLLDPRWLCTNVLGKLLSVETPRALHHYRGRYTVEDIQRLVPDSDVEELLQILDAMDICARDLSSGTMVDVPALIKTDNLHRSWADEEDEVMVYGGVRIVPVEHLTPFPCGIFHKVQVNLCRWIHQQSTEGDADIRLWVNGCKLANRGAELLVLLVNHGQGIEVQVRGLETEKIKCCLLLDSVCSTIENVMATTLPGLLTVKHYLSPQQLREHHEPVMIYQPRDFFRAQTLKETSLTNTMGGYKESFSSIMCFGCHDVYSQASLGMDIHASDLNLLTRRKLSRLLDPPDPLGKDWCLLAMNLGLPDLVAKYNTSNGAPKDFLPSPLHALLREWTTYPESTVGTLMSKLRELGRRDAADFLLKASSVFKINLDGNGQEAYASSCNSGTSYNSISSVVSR

[12] = biological target: Serine/threonine-protein kinase ULK1 (Homo sapiens) (UniProt O75385); assay: Inhibition of recombinant human ULK1 (1 to 314 residues) at 10 uM using casein as substrate measured after 40 mins in presence of [gamm33P]ATP by scintillation counting method relative to control
[13] = biological target: Phosphorylase b kinase gamma catalytic chain, skeletal muscle/heart isoform (Homo sapiens) (UniProt Q16816); assay: Inhibition of full-length recombinant human PHKgamma1 at 10 uM using KKLNRTLSFAEPG as substrate after 120 mins by in presence of [gamma33P]ATP by scintillation counting method relative to control
[14] = biological target: ALK tyrosine kinase receptor (Homo sapiens) (UniProt Q9UM73); assay: Inhibition of recombinant human ALK (1058 to end residues) at 10 uM using KKKSPGEYVNIEF as substrate after 40 mins in presence of [gamma33P]ATP by scintillation counting method relative to control
[15] = biological target: Dual specificity mitogen-activated protein kinase kinase 1 (Homo sapiens) (UniProt Q02750); assay: Inhibition of recombinant full-length human MEK1 at 10 uM using unactive MAPK2 as substrate measured after 40 mins in presence of [gamma33P]ATP by scintillation counting method relative to control
[16] = biological target: Cyclin-dependent kinase 13/Cyclin-K (Homo sapiens) (UniProt Q14004+O75909); assay: Inhibition of full-length recombinant human CDK13/cyclinK at 10 uM using RSRSRSRSRSRSRSR as substrate after 120 mins by in presence of [gamma33P]ATP by scintillation counting method relative to control; format: protein-complex assay
[17] = biological target: Serine/threonine-protein kinase TAO2 (Homo sapiens) (UniProt Q9UL54); assay: Inhibition of recombinant human TAO2 (1 to 320 residues) at 10 uM using myelin basic protein as substrate measured after 40 mins in presence of [gamm33P]ATP by scintillation counting method relative to control
Serine/threonine-protein kinase TAO2 (Homo sapiens), sequence (Q9UL54 whole entry, the tested form may be a part): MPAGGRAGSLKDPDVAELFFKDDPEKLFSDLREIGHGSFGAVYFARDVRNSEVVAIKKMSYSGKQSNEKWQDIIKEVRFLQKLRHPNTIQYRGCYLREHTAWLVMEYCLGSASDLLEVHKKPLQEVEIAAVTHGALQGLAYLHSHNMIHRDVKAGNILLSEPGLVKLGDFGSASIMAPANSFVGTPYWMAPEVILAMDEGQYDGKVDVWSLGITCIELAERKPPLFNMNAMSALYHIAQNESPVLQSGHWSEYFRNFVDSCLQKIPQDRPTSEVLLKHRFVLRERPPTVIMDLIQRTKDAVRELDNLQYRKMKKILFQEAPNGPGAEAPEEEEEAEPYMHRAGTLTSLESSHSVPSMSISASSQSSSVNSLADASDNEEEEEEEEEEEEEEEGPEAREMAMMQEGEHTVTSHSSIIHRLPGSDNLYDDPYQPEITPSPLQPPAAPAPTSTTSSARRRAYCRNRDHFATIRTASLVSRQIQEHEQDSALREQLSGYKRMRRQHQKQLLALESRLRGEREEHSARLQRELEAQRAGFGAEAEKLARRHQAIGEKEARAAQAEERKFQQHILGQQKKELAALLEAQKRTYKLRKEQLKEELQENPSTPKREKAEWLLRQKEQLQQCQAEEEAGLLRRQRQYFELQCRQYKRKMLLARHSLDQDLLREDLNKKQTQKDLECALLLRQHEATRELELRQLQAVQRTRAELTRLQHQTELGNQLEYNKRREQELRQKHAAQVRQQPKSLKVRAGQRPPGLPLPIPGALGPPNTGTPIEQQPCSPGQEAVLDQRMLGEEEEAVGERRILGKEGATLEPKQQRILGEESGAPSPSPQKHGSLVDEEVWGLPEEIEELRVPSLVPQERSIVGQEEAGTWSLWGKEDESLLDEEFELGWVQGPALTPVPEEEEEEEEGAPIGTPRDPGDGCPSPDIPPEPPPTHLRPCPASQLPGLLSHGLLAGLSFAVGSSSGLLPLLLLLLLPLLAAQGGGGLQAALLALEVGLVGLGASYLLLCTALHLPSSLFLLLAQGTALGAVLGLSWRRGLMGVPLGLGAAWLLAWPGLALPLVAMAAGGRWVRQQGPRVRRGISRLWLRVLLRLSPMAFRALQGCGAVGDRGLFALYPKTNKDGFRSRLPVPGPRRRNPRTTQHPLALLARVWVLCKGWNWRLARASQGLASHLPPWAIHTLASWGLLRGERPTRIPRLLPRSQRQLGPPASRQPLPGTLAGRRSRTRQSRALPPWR

[18] = biological target: Interleukin-1 receptor-associated kinase 1 (Homo sapiens) (UniProt P51617); assay: Inhibition of recombinant human IRAK1 (194 to end residues) at 10 uM using myelin basic protein as substrate after 40 mins in presence of [gamma33P]ATP by scintillation counting method relative to control
[19] = organism: Homo sapiens; assay: Inhibition of full-length recombinant human PKA at 10 uM using LRRASLG as substrate after 40 mins by in presence of [gamma33P]ATP by scintillation counting method relative to control
[20] = biological target: Dual specificity mitogen-activated protein kinase kinase 2 (Homo sapiens) (UniProt P36507); assay: Inhibition of recombinant full-length human MEK2 at 10 uM using MBP as substrate measured after 40 mins in presence of [gamma33P]ATP by scintillation counting method relative to control
Dual specificity mitogen-activated protein kinase kinase 2 (Homo sapiens), sequence (P36507 whole entry): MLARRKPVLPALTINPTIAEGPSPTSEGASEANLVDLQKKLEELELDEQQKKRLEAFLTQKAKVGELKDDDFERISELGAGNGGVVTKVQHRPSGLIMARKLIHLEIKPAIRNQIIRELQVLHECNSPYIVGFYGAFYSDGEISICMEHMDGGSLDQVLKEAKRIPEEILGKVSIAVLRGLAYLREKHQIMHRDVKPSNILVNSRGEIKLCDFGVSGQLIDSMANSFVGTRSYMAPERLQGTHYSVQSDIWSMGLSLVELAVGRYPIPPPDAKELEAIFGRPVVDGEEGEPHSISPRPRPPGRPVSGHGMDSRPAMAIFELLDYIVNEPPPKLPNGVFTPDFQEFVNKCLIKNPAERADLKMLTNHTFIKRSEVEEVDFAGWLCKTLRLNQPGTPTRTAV

[21] = biological target: Histone acetyltransferase p300 (Homo sapiens) (UniProt Q09472); assay: Displacement of [3H]-acetyl-CoA from human P300 after 60 mins by microbeta counting method
[22] = biological target: Ephrin type-A receptor 5 (Homo sapiens) (UniProt P54756); assay: Inhibition of human EPHA5 (655 to 956 residues) using poly (Glu, Tyr) 4:1 as substrate at 10 uM after 40 mins in presence of [gamma-33P]-ATP by scintillation counting relative to control
[23] = biological target: Tyrosine-protein kinase JAK2 (Homo sapiens) (UniProt O60674); assay: Inhibition of recombinant human JAK2 (808 to end residues) at 10 uM using KTFCGTPEYLAPEVRREPRILSEEEQEMFRDFDYIADWC as substrate measured after 40 mins in presence of [gamm33P]ATP by scintillation counting method relative to control
[24] = biological target: Mitogen-activated protein kinase kinase kinase 10 (Homo sapiens) (UniProt Q02779); assay: Inhibition of recombinant human MLK2 (1 to 449 residues) at 10 uM using myelin basic protein as substrate measured after 40 mins in presence of [gamma33P]ATP by scintillation counting method relative to control

For `C=CS(=O)(=O)Nc1ccc(Cc2ccc3ccccc3c2)cc1`, the inhibition [1] was 13%, the inhibition [2] was -3% and the inhibition [3] was “Dose-dependent effect”. The inhibition [4] was -2%, the Activity [5] was “inactive” and the inhibition [6] was 5%. The inhibition [7] was -6%, the inhibition [8] was 10% and the ΔTm [9] was 1.2 °C. It also gave an inhibition [10] of 3%, an inhibition [11] of 8% and an inhibition [12] of 7%. The inhibition [13] was -3%, the inhibition [14] was 0% and the inhibition [15] was -3%. The inhibition [16] was 17%, the inhibition [17] was 22% and the inhibition [18] was -9%. For the same compound, the inhibition [19] was 1%, the inhibition [20] was -9% and the inhibition [21] was -3%. The inhibition [22] was 16%, the inhibition [23] was 6% and the inhibition [24] was 2%.
